Activity calls are given as the source filed them.
Assays:
[1] = molecular target: T1, Long-chain-fatty-acid--CoA ligase 5 (Homo sapiens, UniProt Q9ULC5)
T1 sequence (Q9ULC5 whole entry): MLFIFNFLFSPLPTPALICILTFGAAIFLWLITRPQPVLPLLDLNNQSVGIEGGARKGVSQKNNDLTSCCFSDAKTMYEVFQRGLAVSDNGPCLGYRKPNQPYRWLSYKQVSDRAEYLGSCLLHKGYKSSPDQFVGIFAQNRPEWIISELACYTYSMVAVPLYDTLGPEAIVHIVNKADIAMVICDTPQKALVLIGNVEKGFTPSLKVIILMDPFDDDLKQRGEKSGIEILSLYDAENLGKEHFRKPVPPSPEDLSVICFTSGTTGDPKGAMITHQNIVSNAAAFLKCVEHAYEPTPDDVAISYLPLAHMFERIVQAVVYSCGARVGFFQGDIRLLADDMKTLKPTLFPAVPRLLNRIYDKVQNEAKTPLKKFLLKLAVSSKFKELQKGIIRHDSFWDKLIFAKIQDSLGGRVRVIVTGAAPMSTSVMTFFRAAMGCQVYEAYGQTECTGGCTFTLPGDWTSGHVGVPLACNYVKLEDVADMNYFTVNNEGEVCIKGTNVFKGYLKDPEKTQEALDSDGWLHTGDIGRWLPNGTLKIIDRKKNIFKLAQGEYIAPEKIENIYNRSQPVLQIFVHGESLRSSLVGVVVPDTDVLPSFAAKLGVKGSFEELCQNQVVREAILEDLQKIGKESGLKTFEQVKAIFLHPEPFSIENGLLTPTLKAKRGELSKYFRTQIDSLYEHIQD

[2] = molecular target: T2, Breakpoint cluster region protein (Homo sapiens, UniProt P11274)
T2 sequence (P11274 whole entry): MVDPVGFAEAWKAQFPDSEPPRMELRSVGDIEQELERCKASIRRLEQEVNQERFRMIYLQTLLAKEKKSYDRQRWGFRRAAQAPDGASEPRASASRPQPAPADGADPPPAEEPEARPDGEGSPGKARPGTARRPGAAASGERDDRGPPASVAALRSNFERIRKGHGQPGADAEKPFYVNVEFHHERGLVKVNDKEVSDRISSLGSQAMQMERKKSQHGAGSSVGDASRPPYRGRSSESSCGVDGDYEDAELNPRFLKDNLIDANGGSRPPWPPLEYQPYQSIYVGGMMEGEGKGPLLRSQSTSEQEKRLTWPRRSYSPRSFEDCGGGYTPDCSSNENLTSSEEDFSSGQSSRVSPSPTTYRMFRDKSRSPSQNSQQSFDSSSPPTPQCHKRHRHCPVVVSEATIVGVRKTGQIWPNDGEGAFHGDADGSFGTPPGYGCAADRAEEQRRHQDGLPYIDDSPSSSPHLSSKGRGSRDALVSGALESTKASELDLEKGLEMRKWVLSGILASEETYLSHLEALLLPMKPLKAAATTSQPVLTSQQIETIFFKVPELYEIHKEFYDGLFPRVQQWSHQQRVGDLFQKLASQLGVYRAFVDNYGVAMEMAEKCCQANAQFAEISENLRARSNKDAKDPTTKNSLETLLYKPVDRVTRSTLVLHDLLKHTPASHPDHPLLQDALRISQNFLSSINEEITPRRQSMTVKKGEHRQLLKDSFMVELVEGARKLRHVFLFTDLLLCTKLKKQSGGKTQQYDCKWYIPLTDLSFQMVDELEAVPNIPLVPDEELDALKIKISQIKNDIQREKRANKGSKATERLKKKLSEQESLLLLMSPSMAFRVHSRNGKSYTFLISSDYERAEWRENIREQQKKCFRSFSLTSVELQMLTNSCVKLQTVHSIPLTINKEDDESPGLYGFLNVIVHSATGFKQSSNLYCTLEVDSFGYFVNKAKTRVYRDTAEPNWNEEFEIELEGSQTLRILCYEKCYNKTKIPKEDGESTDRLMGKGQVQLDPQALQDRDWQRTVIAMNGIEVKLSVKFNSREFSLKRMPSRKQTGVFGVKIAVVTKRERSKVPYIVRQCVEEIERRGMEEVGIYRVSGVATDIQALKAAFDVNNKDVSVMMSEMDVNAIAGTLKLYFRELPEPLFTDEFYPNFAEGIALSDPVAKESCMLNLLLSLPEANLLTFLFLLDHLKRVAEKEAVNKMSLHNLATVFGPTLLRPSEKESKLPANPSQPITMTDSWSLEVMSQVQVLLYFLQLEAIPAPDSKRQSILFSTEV

[3] = molecular target: Cyclin-dependent kinase 17 (Homo sapiens, UniProt Q00537)
[4] = molecular target: Cyclin-dependent kinase 3 (Homo sapiens, UniProt Q00526)
[5] = molecular target: T3, Electron transfer flavoprotein subunit beta (Homo sapiens, UniProt P38117)
T3 sequence (P38117 whole entry): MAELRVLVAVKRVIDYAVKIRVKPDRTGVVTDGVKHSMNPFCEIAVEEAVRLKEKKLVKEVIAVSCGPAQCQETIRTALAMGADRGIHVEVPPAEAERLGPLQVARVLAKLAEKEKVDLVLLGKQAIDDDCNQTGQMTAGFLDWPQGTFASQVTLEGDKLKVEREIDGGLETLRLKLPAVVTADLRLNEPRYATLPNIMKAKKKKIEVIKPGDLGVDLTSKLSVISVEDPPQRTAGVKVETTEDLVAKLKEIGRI

[6] = molecular target: Serine/threonine-protein kinase Nek7 (Homo sapiens, UniProt Q8TDX7)
[7] = molecular target: High affinity nerve growth factor receptor (Homo sapiens, UniProt P04629)
[8] = molecular target: Choline-phosphate cytidylyltransferase A (Homo sapiens, UniProt P49585)
[9] = molecular target: Membrane-associated progesterone receptor component 1 (Homo sapiens, UniProt O00264)
[10] = molecular target: Serine/threonine-protein kinase pim-2 (Homo sapiens, UniProt Q9P1W9)
[11] = molecular target: Serine/threonine-protein kinase PLK1 (Homo sapiens, UniProt P53350)
[12] = molecular target: T4, Ras-related protein Rab-10 (Homo sapiens, UniProt P61026)
T4 sequence (P61026 whole entry): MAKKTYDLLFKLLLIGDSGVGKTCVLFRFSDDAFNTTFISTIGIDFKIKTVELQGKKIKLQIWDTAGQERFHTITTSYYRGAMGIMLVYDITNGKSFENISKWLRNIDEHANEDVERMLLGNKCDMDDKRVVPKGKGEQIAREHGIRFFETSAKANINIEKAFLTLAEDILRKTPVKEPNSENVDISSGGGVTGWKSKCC

[13] = molecular target: Ras-related protein Rab-6A (Homo sapiens, UniProt P20340)

Measured: Kd
Note: in the data inactive means no Kd found up to 30 µM.

Cyclin-dependent kinase 17, sequence (Q00537 whole entry): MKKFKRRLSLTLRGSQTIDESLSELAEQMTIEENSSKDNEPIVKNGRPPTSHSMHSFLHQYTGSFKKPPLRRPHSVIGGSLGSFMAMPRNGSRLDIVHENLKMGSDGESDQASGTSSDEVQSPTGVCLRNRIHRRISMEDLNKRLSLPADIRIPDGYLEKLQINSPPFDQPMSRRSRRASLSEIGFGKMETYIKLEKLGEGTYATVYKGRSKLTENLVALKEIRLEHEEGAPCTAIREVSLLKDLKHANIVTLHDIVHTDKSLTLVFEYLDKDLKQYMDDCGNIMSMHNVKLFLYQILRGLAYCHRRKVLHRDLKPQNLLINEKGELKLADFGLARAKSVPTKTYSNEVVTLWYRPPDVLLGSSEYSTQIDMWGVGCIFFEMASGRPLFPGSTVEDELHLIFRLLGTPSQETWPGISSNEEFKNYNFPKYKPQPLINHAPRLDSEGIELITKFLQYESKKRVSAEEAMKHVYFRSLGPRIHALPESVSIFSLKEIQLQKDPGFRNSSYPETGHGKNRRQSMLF
Membrane-associated progesterone receptor component 1, sequence (O00264 whole entry): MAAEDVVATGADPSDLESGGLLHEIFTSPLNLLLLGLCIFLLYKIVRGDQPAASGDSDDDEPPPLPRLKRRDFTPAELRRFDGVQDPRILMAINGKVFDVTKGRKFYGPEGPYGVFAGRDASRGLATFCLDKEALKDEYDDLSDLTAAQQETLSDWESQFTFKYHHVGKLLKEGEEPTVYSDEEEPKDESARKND
Ras-related protein Rab-6A, sequence (P20340 whole entry): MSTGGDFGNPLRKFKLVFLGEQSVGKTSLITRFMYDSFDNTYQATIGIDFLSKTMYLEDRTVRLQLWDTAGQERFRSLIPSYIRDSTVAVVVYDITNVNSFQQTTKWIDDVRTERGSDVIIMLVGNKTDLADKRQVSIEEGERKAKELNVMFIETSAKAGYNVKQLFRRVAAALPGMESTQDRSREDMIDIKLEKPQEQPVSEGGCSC
Serine/threonine-protein kinase PLK1, sequence (P53350 whole entry): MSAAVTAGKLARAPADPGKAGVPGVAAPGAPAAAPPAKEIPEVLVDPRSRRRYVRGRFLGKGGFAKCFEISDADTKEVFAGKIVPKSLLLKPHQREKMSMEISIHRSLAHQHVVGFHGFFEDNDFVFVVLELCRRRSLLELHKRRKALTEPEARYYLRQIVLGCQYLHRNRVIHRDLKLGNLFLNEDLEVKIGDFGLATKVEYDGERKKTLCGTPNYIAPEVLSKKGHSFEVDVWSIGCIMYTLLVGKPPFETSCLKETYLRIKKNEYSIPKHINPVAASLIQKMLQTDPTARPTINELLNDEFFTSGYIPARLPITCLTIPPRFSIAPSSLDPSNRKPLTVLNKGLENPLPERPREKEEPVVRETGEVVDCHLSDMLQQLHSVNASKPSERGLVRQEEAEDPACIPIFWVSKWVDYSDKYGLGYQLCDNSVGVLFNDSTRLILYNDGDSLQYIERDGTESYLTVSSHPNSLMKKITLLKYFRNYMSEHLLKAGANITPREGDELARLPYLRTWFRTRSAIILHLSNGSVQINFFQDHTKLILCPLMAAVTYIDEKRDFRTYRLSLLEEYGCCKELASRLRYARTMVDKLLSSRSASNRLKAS
Cyclin-dependent kinase 3, sequence (Q00526 whole entry): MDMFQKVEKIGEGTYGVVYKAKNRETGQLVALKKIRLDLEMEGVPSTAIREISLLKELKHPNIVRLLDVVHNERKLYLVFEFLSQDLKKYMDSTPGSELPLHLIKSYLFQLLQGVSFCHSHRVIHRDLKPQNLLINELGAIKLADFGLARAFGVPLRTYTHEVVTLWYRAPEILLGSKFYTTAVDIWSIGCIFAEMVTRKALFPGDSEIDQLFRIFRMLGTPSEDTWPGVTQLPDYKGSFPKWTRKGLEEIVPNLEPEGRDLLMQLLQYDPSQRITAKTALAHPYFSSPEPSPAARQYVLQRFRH
Serine/threonine-protein kinase pim-2, sequence (Q9P1W9 whole entry): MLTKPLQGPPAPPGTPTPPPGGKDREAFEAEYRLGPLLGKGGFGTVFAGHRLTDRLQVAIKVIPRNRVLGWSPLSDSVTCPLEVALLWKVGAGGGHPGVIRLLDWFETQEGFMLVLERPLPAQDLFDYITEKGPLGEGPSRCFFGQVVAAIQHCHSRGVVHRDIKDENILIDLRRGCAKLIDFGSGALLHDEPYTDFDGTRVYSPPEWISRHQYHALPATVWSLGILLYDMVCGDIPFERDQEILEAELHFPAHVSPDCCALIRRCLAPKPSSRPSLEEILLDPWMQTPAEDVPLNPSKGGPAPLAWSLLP
Serine/threonine-protein kinase Nek7, sequence (Q8TDX7 whole entry): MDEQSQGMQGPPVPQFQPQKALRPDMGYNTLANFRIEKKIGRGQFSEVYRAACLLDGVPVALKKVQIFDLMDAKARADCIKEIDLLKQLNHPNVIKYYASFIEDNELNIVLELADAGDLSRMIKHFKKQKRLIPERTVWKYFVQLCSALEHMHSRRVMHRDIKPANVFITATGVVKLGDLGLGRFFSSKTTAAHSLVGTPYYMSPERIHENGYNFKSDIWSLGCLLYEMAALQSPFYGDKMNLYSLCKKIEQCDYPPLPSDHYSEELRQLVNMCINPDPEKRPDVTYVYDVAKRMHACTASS
Choline-phosphate cytidylyltransferase A, sequence (P49585 whole entry): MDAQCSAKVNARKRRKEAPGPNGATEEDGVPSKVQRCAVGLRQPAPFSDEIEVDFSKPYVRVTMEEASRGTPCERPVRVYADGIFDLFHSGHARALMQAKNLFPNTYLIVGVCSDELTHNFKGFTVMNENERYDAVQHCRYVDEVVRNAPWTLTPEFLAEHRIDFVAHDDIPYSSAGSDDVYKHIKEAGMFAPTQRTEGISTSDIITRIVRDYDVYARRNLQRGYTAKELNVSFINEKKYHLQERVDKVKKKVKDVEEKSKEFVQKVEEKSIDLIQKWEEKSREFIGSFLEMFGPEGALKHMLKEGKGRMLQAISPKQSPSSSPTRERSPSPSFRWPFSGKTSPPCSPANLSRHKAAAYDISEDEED
High affinity nerve growth factor receptor, sequence (P04629 whole entry): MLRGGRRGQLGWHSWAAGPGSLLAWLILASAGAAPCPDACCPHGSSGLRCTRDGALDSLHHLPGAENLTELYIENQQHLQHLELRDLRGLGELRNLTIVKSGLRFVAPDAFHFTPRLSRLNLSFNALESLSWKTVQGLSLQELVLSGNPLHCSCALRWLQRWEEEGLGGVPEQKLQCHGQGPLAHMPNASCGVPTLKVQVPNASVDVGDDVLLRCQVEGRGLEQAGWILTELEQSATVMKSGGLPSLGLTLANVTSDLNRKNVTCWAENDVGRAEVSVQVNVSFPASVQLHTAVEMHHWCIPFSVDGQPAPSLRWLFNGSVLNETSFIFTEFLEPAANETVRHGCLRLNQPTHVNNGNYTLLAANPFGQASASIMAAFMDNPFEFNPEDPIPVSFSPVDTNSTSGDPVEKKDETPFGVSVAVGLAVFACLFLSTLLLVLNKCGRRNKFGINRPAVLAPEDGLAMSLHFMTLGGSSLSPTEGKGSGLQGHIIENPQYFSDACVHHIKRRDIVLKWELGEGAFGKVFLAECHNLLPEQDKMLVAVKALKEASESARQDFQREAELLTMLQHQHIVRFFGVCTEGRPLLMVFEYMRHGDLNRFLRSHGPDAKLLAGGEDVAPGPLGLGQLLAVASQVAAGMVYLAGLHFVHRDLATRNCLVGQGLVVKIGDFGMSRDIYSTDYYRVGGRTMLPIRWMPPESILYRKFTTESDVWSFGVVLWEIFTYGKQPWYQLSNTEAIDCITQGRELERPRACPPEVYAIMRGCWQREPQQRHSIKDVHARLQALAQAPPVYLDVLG

O=C(Cc1ccc(-c2ccc(OCCN3CCOCC3)cc2)cn1)NCc1ccccc1 [TIRBANIBULIN]
inactive: [1] > 30 µM | [2] > 30 µM | [3] > 30 µM | [4] > 30 µM | [5] > 30 µM | [6] > 30 µM | [7] > 30 µM | [8] > 30 µM | [9] > 30 µM | [10] > 30 µM | [11] > 30 µM | [12] > 30 µM | [13] > 30 µM

From ChEMBL document CHEMBL3991601, “The target landscape of clinical kinase drugs” (Science, 2017)
